Laboratory results: patent US10017734B2, “Method for producing dopaminergic neurons” (TAKEDA PHARMACEUTICAL COMPANY LIMITED, priority 2013, dated 2018)

Experiments:
Assay type in all cases: cell-based
[1] = tested on: floor plate cells induced from human iPS cell (253G1 strain, 201B7 strain); experiment: NURR1 expression by quantitative RT-PCR on day 45 after differentiation of floor plate cells; settings: 3 μM PD0325901 added in addition to ascorbic acid and dbcAMP
Description: Floor plate cells were induced by a method similar to the methods described in Reference Examples 1 to 3, the medium was exchanged with (A) Neuro/B27 added with 3 factors of 0.1 mM ascorbic acid (SIGMA), 0.5 mM dibutyryl-cAMP (SIGMA, hereinafter to be indicated as dbcAMP) and 3 μM PD0325901, or (B) Neuro/B27 added with 2 factors of 0.1 mM ascorbic acid and 0.5 mM dbcAMP on day 13 of culture, and the cells were cultured at 37° C. under 5% CO2 for not less than 30 days. The medium was exchanged every 3-4 days during the above-mentioned culture periods. On day 45 of culture, the cells were recovered, and expression variation of NURR1 known as a transcription factor extremely important for the differentiation, maturation and maintenance of functions of midbrain dopaminergic neuron was examined.

[2] = tested on: dopaminergic neuron induced from human iPS cell (253G1 strain, 201B7 strain); experiment: Ability to release dopamine by high-KCl stimulation on day 50 of culture; settings: HBSS with 55 mM KCl vs HBSS
Description: Floor plate cells were induced by a method similar to the methods described in Reference Examples 1 to 3, differentiation induction was performed by exchanging the medium with (A) Neuro/B27 added with 3 factors of ascorbic acid, dbcAMP and PD0325901, or (B) Neuro/B27 added with 2 factors of ascorbic acid and dbcAMP from day 13 of culture, and an ability to release dopamine by stimulation with high-KCl was evaluated on day 50 of culture.
The above-mentioned evaluation was performed as follows. The medium of the cells after differentiation induction was exchanged with Neuro/B27, and the cells were cultured overnight. […] For the analysis, a trace biological sample analysis system and HTEC500 (Eicom Corporation), electrochemical detector EPC-500 (Eicom Corporation) were used, and the amount of dopamine contained in the sample was measured according to the manual of Eicom Corporation (Eicom information No. 25). […] However, when differentiation was induced using the aforementioned (A) Neuro/B27, an increase in the amount of dopamine released by stimulation with high-KCl could be detected with good reproducibility even in a different lot.

[3] = tested on: floor plate cells induced from human iPS cell (253G1 strain, 201B7 strain); experiment: Study of various MEK inhibitors (including FGFR inhibitor): NURR1 expression by quantitative RT-PCR on day 45; settings: 253G1 strain, added to ascorbic acid and dbcAMP, 3 μM PD0325901, 3 μM PD184352, 10 μM SU5402
Description: Whether midbrain dopaminergic neuron can be induced in a medium containing any of PD184352 (Axon MedChem), SU5402 (FGF receptor (FGFR) inhibitor, Wako Pure Chemical Industries, Ltd.) and PD173074 (FGFR inhibitor, Axon MedChem) instead of PD0325901 in the aforementioned (A) Neuro/B27 was studied.
Floor plate cells were induced by a method similar to the methods described in Reference Examples 1 to 3, the medium was exchanged with Neuro/B27 added with (1) 3 factors of ascorbic acid, dbcAMP and PD0325901, (2) 2 factors of ascorbic acid and dbcAMP, (3) ascorbic acid, dbcAMP and 3 μM PD184352, (4) ascorbic acid, dbcAMP and 10 μM SU5402, or (5) ascorbic acid, dbcAMP and 0.1 μM PD173074 on day 13 of culture, and the cells were cultured at 37° C. under 5% CO2 for not less than 30 days. The medium was exchanged every 3-4 days during the above-mentioned culture periods. On day 45 of culture, the cells were recovered, and expression variation of NURR1 was examined. In 253G1 strain, the expression of NURR1 was elevated by the addition of PD0325901, PD184352 or SU5402 and, in 201B7 strain, the expression of NURR1 was elevated by the addition of all 4 kinds.

[4] = tested on: floor plate cells induced from human iPS cell (253G1 strain, 201B7 strain); experiment: TH and NURR1 expression by quantitative RT-PCR on day 26 of culture; settings: dbcAMP and activin A
Description: Floor plate cells were induced by a method similar to the methods described in Reference Examples 1 to 3, the medium was exchanged with Neuro/B27 added with one or more kinds of 0.1 mM ascorbic acid, 0.5 mM dbcAMP, 3 μM PD0325901, and 20 ng/ml activin A (R&D), or Neuro/B27 without addition of ascorbic acid, dbcAMP, PD0325901, and activin A as a control on day 12 of culture, and the cells were cultured for 14 days more (total 26 days). The cells after culture were recovered, and the expression variation of TH and NURR1 was examined by a method similar to Reference Example 3. […] On the other hand, when ascorbic acid, dbcAMP and PD0325901 were added, the expression level was lower at the time point of day 26 of culture than the addition of ascorbic acid, dbcAMP and activin A.

[5] = tested on: floor plate cells induced from human iPS cell (253G1 strain, 201B7 strain); experiment: Immunofluorescent staining of TH, NURR1 and FOXA2 proteins on days 45-52 of culture; settings: PD0325901 added to ascorbic acid and dbcAMP (Example 1, (A))
Description: Then, the expression of midbrain dopaminergic neuron markers TH, NURR1 and FOXA2 proteins was examined by immunofluorescent staining using anti-TH antibody, anti-NURR1 antibody and anti-FOXA2 antibody. Floor plate cells were induced by a method similar to the methods described in Reference Examples 1 to 3, differentiation induction was performed by exchanging the medium with (A) Neuro/B27 added with 3 factors of ascorbic acid, dbcAMP and PD0325901, or (B) Neuro/B27 added with 2 factors of ascorbic acid and dbcAMP from day 13 of culture, 4% PFA was added on days 45-52 of culture, and the cells were fixed at room temperature for 30 min. The cells were reacted with anti-TH antibody (AB152, Nihon Millipore K.K.), anti-NURR1 antibody (PP-N1404-00, Perseus Proteomics) and anti-FOXA2 antibody (sc-6544, Santa Cruz) as the primary antibodies, and sequentially reacted with Alexa488-labeled secondary antibody, Alexa568-labeled secondary antibody and Alexa647-labeled secondary antibody, corresponding to the immunized animal of the primary antibody, as the secondary antibodies, and observed under a fluorescence microscope. […]

[6] = tested on: human iPS cell (253G1 strain, 201B7 strain); experiment: Time-course expression of differentiation markers by quantitative RT-PCR in the three-step differentiation system; settings: conditions excluding only purmorphamine (-Pur)
Description: In step 1, the cells were cultured in Neuro/B27 added with 0.5 μM LDN193189, 10 μM SB431542, 0.5 μM purmorphamine, 200 ng/ml SHH and 1 μM CHIR99021 for 5 days. In step 2, the cells were cultured in Neuro/B27 added with 0.5 μM LDN193189 and 1 μM CHIR99021 for 8 days (total 13 days). In step 3, the cells were cultured in Neuro/B27 added with 0.1 mM ascorbic acid, 0.5 mM dbcAMP and 3 μM PD0325901 for 32 days (total 45 days). After culture, time-course expression variation of various differentiation markers was measured by a method similar to Reference Example 3.
As a control, the cells were cultured under conditions without addition of a differentiation inducing factor (− in Figure), conditions excluding only SHH (−SHH in Figure) or conditions excluding only purmorphamine (−Pur in Figure). Also, the group subjected to differentiation induction under the conditions shown in FIG. 9 from step 2 onward was studied.

[7] = tested on: cryopreserved day 26 cells induced from human iPS cell (253G1 strain, 201B7 strain); experiment: Dopaminergic neuron marker expression by quantitative RT-PCR 2 weeks after thawing of cells cryopreserved on day 26; settings: Y27632 10 μM
Description: Midbrain floor plate cells were induced by a method similar to the methods described in Reference Examples 1 to 3, the medium was exchanged with Neuro/B27 added with 0.1 mM ascorbic acid, 0.5 mM dbcAMP, 3 μM PD0325901, and 20 ng/ml activin A (R&D) on day 12 of culture, and the cells were cultured for 14 days more (total 26 days). After culture, the cells were washed with PBS, and dispersed by treating with Accutase (Innovative Cell Technologies) at 37° C. for 20-30 min. After centrifugal washing, the cells were suspended in cell banker 2 (Juji Field Inc.) at a concentration of about 2×10^6 cells/ml/tube, and cryopreserved at −80° C. The cryopreserved cells were thawed by immersion in a thermostatic tank at 37° C. and, after centrifugal washing, seeded in a 96 well plate at a density of 2×10^4 cells per well, and cultured at 37° C. under 5% CO2 for 2 weeks. As the above-mentioned 96 well plate, one coated at 37° C. overnight with Matrigel 1/30-1/40 diluted with DMEM/F12 (Life Technologies Corporation) or Laminin (Trevigen Inc.) diluted with DMEM/F12 at a concentration of 10 μg/ml was used. As the culture medium, Neuro/B27 added with one or more kinds of 0.1 mM ascorbic acid, 0.5 mM dbcAMP, 3 μM PD0325901, and 20 ng/ml activin A, or Neuro/B27 without addition of ascorbic acid, dbcAMP, PD0325901, and activin A as a control was used. […]

Structure (SMILES): O=C(NOC[C@H](O)CO)c1ccc(F)c(F)c1Nc1ccc(I)cc1F [PD0325901, N-[(2R)-2,3-dihydroxypropoxy]-3,4-difluoro-2-[(2-fluoro-4-iodophenyl)amino]-benzamide]
- expression of NURR1 [1]: further elevated highly
- increase in the amount of dopamine released by stimulation with high-KCl [2]: stably detected
- expression of NURR1 [3]: elevated
- expression of TH and NURR1 ([4]; 3 μM PD0325901 added together with ascorbic acid): further elevated highly
- expression level of TH and NURR1 ([4]; ascorbic acid, dbcAMP and PD0325901 compared with ascorbic acid): lower
- staining with NURR1 protein [5]: strongly-positive

Structure (SMILES): c1ccc2c(Oc3nc(Nc4ccc(N5CCOCC5)cc4)c4ncn(C5CCCCC5)c4n3)cccc2c1 [purmorphamine, N-(4-morpholinophenyl)-2-(1-naphthyloxy)-9-cyclohexyl-9H-purin-6-amine]
- expression of FOXA2 [6]: low

Structure (SMILES): C[C@@H](N)[C@H]1CC[C@H](C(=O)Nc2ccncc2)CC1 [Y27632, (R)-(+)-trans-4-(1-aminoethyl)-N-(4-pyridyl)cyclohexanecarboxamide]
- expression levels of the markers, presence or absence of Y27632 [7]: scarcely different
